Tests used:
Aspergillus spp. = assay: Thermal fogging with eugenol of empty grain storage cells; Airtest trapping of Aspergillus colonies on Petri dishes; conditions: for Aspergillus contamination (number colonies/Petri dish) After treatment: Airtest 100 l, 10 days after treatment
Experimental: (§1) Six cells (noted ‘20’, ‘L’, ‘12’, ‘F’, ‘8’ and ‘I’) were studied. These are concrete cells with a conical bottom (bottom for completely emptying the cell and eliminating more readily the debris and dust before ensilaging the next harvest). The cells identified by a number have a capacity of 350 t, those identified by a letter have a capacity of 50 t. The level of contamination of the six cells was evaluated by trapping the contaminated spores or particles using an Airtest introduced into the cell via an access hatch located at the base of the cell.
(§2) The Petri dishes 90 mm in diameter, placed in the Airtest and constituting the trap, contained a Malt Agar+Triton medium; the addition of triton modifies the development of the fungal colonies, which remain compact and are easy to count. The volume of air passing through the Airtest was set at 100 I, except for one cell in which we tested 4 different volumes of air (10 l, 20 l, 40 l, 100 l). For each mode, three repetitions (3Petri dishes) were carried out.
(§3) Two types of trapping were carried out; atmospheric trapping and trapping on the […]. In fact, these walls have rough patches and can retain mould spores or infected particles. The Airtest was placed approximately 5 mm from the wall.
(§4) […]
(§5) The eugenol thermal fogging treatment was carried out on a platform on which the thermal fogging device was installed.
(§6) 4 l and 20 l of eugenol, respectively, were subjected to thermal fogging at 230° C. (for approximately ¾ h) in cell L (≈50 m^3) and in cell 12 (≈350 m^3).

Penicillium spp. = assay: Thermal fogging with eugenol of empty grain storage cells; Airtest trapping of Penicillium colonies on Petri dishes; conditions: for Penicillium contamination (number colonies/Petri dish) After treatment: Airtest 100 l, 10 days after treatment
Experimental: as §1, §2, §3, §4, §5, §6

[1] = thermal fogging of eugenol in the cells, atmospheric and wall contamination

Question: `C=CCc1ccc(O)c(OC)c1` [eugenol] was tested. Which “Aspergillus contamination (number colonies/Petri dish) After treatment” value (Aspergillus spp.; cell 12 (wheat, ≈350 m^3), 20 l eugenol thermal fogging at 230° C., atmosphere trapping, before treatment 77) did it give?
Answer: 0 number colonies/Petri dish

Question: What about the “Aspergillus contamination (number colonies/Petri dish) After treatment” value (Aspergillus spp.; cell 12 (wheat, ≈350 m^3), 20 l eugenol thermal fogging at 230° C., wall trapping, before treatment 85) of the same molecule?
Answer: 0 number colonies/Petri dish

Question: And the “Aspergillus spp. contamination after treatment (in words)” value (Aspergillus spp.; cell 12, 20 l eugenol thermal fogging at 230° C.)?
Answer: completely controlled

Question: And the “Aspergillus contamination (number colonies/Petri dish) After treatment” value (Aspergillus spp.; cell L (wheat, ≈50 m^3), 4 l eugenol thermal fogging at 230° C., atmosphere trapping, before treatment 0)?
Answer: 0 number colonies/Petri dish

Question: And the “Aspergillus contamination (number colonies/Petri dish) After treatment” value (Aspergillus spp.; cell L (wheat, ≈50 m^3), 4 l eugenol thermal fogging at 230° C., wall trapping, before treatment 0)?
Answer: 0 number colonies/Petri dish

Question: And the “effectiveness against Aspergillus spp. present in the grain storage cells (in words)” value (Aspergillus spp.; [1])?
Answer: very effective

Question: And the “Penicillium contamination (number colonies/Petri dish) After treatment” value (Penicillium spp.; cell 12 (wheat, ≈350 m^3), 20 l eugenol thermal fogging at 230° C., atmosphere trapping, before treatment 1240)?
Answer: 400 number colonies/Petri dish

Question: And the “Penicillium contamination (number colonies/Petri dish) After treatment” value (Penicillium spp.; cell 12 (wheat, ≈350 m^3), 20 l eugenol thermal fogging at 230° C., wall trapping, before treatment 1860)?
Answer: 207 number colonies/Petri dish

Question: What about the “Penicillium contamination (number colonies/Petri dish) After treatment” value (Penicillium spp.; cell L (wheat, ≈50 m^3), 4 l eugenol thermal fogging at 230° C., atmosphere trapping, before treatment 2650) of the same molecule?
Answer: 106 number colonies/Petri dish

Question: And the “Penicillium contamination (number colonies/Petri dish) After treatment” value (Penicillium spp.; cell L (wheat, ≈50 m^3), 4 l eugenol thermal fogging at 230° C., wall trapping, before treatment 7500)?
Answer: 85 number colonies/Petri dish

Question: And the “level of Penicillium spp. contamination after treatment (in words)” value (Penicillium spp.; cells L and 12, thermal fogging with eugenol at 230° C., atmospheric and wall contamination)?
Answer: clear decrease

Question: And the “effectiveness against Penicillium spp. present in the grain storage cells (in words)” value (Penicillium spp.; [1])?
Answer: very effective
